# Results published in US9688695B2, “Imidazothiadiazole and imidazopyrazine derivatives as protease activated receptor 4 (PAR4) inhibitors for treating platelet aggregation” (BRISTOL-MYERS SQUIBB COMPANY, priority 2012, dated 2017).
# Target: PAR4 (Homo sapiens (Human), UniProt Q96RI0)
# Assay: FLIPR assay in PAR4-expressing HEK293 cells (PAR4 antagonist activity, calcium mobilization)
# Type: cell-based
# Settings: H-Ala-Phe(4-F)-Pro-Gly-Trp-Leu-Val-Lys-Asn-Gly-NH2-induced calcium mobilization
# How it was run: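 HEK293 EBNA cells stably expressing human PAR4 (also endogenous PAR1) preincubated 30 min at room temperature with compound in HBSS/10 mM HEPES, 0.67% DMSO final. PAR4 agonist peptide then added and intracellular calcium mobilization monitored by fluorescence.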
# Sequence of PAR4 (Q96RI0 18-385): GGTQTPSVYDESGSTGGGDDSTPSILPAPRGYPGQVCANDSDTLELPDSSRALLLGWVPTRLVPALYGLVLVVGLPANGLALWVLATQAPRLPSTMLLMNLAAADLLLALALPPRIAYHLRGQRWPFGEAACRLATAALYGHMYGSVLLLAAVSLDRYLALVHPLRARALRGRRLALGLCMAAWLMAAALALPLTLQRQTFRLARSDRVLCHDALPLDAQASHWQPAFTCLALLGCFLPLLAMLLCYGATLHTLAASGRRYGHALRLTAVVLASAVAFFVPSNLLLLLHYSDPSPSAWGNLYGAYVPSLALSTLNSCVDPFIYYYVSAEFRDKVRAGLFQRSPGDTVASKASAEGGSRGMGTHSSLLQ
row,SMILES,EC50 [nM]
1,"COc1cc(OCc2csc(C3CCN(S(=O)(=O)c4ccccc4)CC3)n2)c2cc(-c3cn4nc(OC)sc4n3)oc2c1 [Example 113, 2-Methoxy-6-(6-methoxy-4-((2-(1-(phenylsulfonyl)piperidin-4-yl)thiazol-4-yl)methoxy)benzofuran-2-yl)imidazo[2,1-b][1,3,4]thiadiazole]",0.43
2,COc1cc(OCc2csc(N3CCSCC3)n2)c2cc(-c3cn4nc(C)ccc4n3)oc2c1 [Example 217],0.61
3,COc1cc(OCc2csc(-c3ccccc3F)n2)c2cc(-c3cn4nc(OC)sc4n3)oc2c1 [Example 26],1.8
4,COc1cc(OCc2nc(-c3cccc(COC(C)=O)c3)sc2C)c2cc(-c3cn4nc(C)ccc4n3)oc2c1 [Example 229],0.76
5,"COc1cc(OCc2csc(N3CCN(S(=O)(=O)C(C)C)CC3)n2)c2cc(-c3cn4nc(OC)sc4n3)oc2c1 [Example 102, 6-(4-((2-(4-(Isopropylsulfonyl)piperazin-1-yl)thiazol-4-yl)methoxy)-6-methoxybenzofuran-2-yl)-2-methoxyimidazo[2,1-b][1,3,4]thiadiazole]",2.3
6,C=CCN(C)C(=O)c1ccc(-c2nc(COc3cc(OC)cc4oc(-c5cn6nc(OC)sc6n5)cc34)cs2)cc1 [Example 296],2.2
7,"COC(=O)c1ccc(C2(c3nc(COc4cc(OC)cc5oc(-c6cn7nc(OC)sc7n6)cc45)cs3)CCOCC2)cc1 [Example 160, Methyl 4-(4-(4-(((6-methoxy-2-(2-methoxyimidazo[2,1-b][1,3,4]thiadiazol-6-yl)benzofuran-4-yl)oxy)methyl)thiazol-2-yl)tetrahydro-2H-pyran-4-yl)benzoate]",0.5
8,"COc1cc(OCc2csc(C3(O)CCC(C(=O)OC(C)(C)C)CC3)n2)c2cc(-c3cn4nc(OC)sc4n3)oc2c1 (stereo not drawn) [Example 149, tert-Butyl 4-hydroxy-4-(4-(((6-methoxy-2-(2-methoxyimidazo[2,1-b][1,3,4]thiadiazol-6-yl)benzofuran-4-yl)oxy)methyl)thiazol-2-yl)cyclohexanecarboxylate]",4.1
9,"COc1cc(OCc2csc(Nc3ccc(Br)cc3C)n2)c2cc(-c3cn4nc(OC)sc4n3)oc2c1 [Example 108, N-(4-Bromo-2-methylphenyl)-4-(((6-methoxy-2-(2-methoxyimidazo[2,1-b][1,3,4]thiadiazol-6-yl)benzofuran-4-yl)oxy)methyl)thiazol-2-amine]",1.2
10,COc1cc(OCc2csc(-c3ccc(C(=O)N4CCCCCC4)cc3)n2)c2cc(-c3cn4nc(OC)sc4n3)oc2c1 [Example 303],0.85
11,"COc1cc(OCc2csc(C3(c4cccc(Cl)c4)CCOC3)n2)c2cc(-c3cn4nc(OC)sc4n3)oc2c1 (stereo not drawn) [Example 165, 6-(4-((2-(3-(3-Chlorophenyl)tetrahydrofuran-3-yl)thiazol-4-yl)methoxy)-6-methoxybenzofuran-2-yl)-2-methoxyimidazo[2,1-b][1,3,4]thiadiazole]",1.1
12,COc1cc(OCc2csc(-c3ccc(C(=O)N4CCC4)cc3)n2)c2cc(-c3cn4nc(OC)sc4n3)oc2c1 [Example 289],1.2
13,"COc1cc(OCc2csc(C3(O)CC(C)OC(C)C3)n2)c2cc(-c3cn4nc([C@H](C)F)sc4n3)oc2c1 (stereo partly drawn) [Example 198, 4-(4-(((2-(2-((S)-1-Fluoroethyl)imidazo[2,1-b][1,3,4]thiadiazol-6-yl)-6-methoxybenzofuran-4-yl)oxy)methyl)thiazol-2-yl)-2,6-dimethyltetrahydro-2H-pyran-4-ol]",0.42
14,CCC(O)(CC)c1nc(COc2cc(OC)cc3oc(-c4cn5nc(OC)sc5n4)cc23)cs1 [Example 140],0.67
15,COc1cc(OCc2csc(N3CCN(S(=O)(=O)c4ccc(C#N)cc4)CC3)n2)c2cc(-c3cn4nc(C)ccc4n3)oc2c1 [Example 237],3.5
16,COc1cc(OCc2csc(-c3ccc(C(=O)N(C)C)cc3)n2)c2cc(-c3cn4nc(C)ccc4n3)oc2c1 [Example 223],0.62
17,COc1cc(OCc2csc(-c3ccc(C(=O)N(C)CCO)cc3)n2)c2cc(-c3cn4nc(OC)sc4n3)oc2c1 [Example 300],0.42
18,"COc1cc(OCc2csc(-c3ccncc3)n2)c2cc(-c3cn4nc(C)ccc4n3)oc2c1 [Example 211, 4-(((6-Methoxy-2-(6-methylimidazo[1,2-b]pyridazin-2-yl)benzofuran-4-yl)oxy)methyl)-2-(pyridin-4-yl)thiazole]",0.72
19,CCN(C(=O)c1ccc(-c2nc(COc3cc(OC)cc4oc(-c5cn6nc(OC)sc6n5)cc34)cs2)cc1)C1CC1 [Example 299],0.55
20,"COc1cc(OCc2csc(-c3ccc(OC(F)(F)F)cc3)n2)c2cc(-c3cn4nc(C)ccc4n3)oc2c1 [Example 210, 4-(((6-Methoxy-2-(6-methylimidazo[1,2-b]pyridazin-2-yl)benzofuran-4-yl)oxy)methyl)-2-(4-(trifluoromethoxy)phenyl)thiazole]",0.86
21,"COc1cc(OCc2csc(C3(NC(=O)CNC(=O)OC(C)(C)C)CCOCC3)n2)c2cc(-c3cn4nc(OC)sc4n3)oc2c1 [Example 173, tert-Butyl (2-((4-(4-(((6-methoxy-2-(2-methoxyimidazo-[2,1-b][1,3,4]thiadiazol-6-yl)benzofuran-4-yl)oxy)methyl)-thiazol-2-yl)tetrahydro-2H-pyran-4-yl)amino)-2-oxoethyl)carbamate]",0.67
22,COc1cc(OCc2csc(-c3ccc(C(=O)N4CC(OC)C4)cc3)n2)c2cc(-c3cn4nc(OC)sc4n3)oc2c1 [Example 294],0.4
23,"COc1cc(OCc2nc(-c3ccc(C(=O)N(C)C)cc3)sc2C(C)C)c2cc(-c3cn4nc(OC)sc4n3)oc2c1 [Example 42, 4-(5-Isopropyl-4-(((6-methoxy-2-(2-methoxyimidazo[2,1-b][1,3,4]thiadiazol-6-yl)benzofuran-4-yl)oxy)methyl)thiazol-2-yl)-N,N-dimethylbenzamide]",2.5
24,COc1cc(OCc2csc(-c3ccc(C#N)cc3)n2)c2cc(-c3cn4nc(OC)sc4n3)oc2c1 [Example 64],2.3
25,COc1cc(OCc2csc(N3CCN(c4cccc(Cl)n4)CC3)n2)c2cc(-c3cn4nc(C)ccc4n3)oc2c1 [Example 284],1.1

# Next, values leading:
row,EC50 [nM],SMILES
1,0.68,"COc1cc(OCc2csc(N3CC4(COC4)C3)n2)c2cc(-c3cn4nc(OC)sc4n3)oc2c1 [Example 104, 6-(4-(((6-Methoxy-2-(2-methoxyimidazo[2,1-b][1,3,4]thiadiazol-6-yl)benzofuran-4-yl)oxy)methyl)thiazol-2-yl)-2-oxa-6-azaspiro[3.3]heptane]"
2,1.1,"COc1cc(OCc2nc(-c3ccccc3)sc2Cl)c2cc(-c3cn4nc(OC)sc4n3)oc2c1 [Example 85, 6-(4-((5-Chloro-2-phenylthiazol-4-yl)methoxy)-6-methoxybenzofuran-2-yl)-2-methoxyimidazo[2,1-b][1,3,4]thiadiazole]"
3,0.28,"COc1cc(OCc2csc(C3CCOc4ccccc43)n2)c2cc(-c3cn4nc(OC)sc4n3)oc2c1 (stereo not drawn) [Example 168, 6-(4-((2-(Chroman-4-yl)thiazol-4-yl)methoxy)-6-methoxybenzofuran-2-yl)-2-methoxyimidazo[2,1-b][1,3,4]thiadiazole]"
4,0.63,"COc1cc(OCc2nc(N3CCOCC3)oc2C)c2cc(-c3cn4nc(OC)sc4n3)oc2c1 [Example 97, 4-(4-(((6-Methoxy-2-(2-methoxyimidazo[2,1-b][1,3,4]thiadiazol-6-yl)benzofuran-4-yl)oxy)methyl)-5-methyloxazol-2-yl)morpholine]"
5,1.3,COc1cc(OCc2csc(Br)n2)c2cc(-c3cn4nc(OC)sc4n3)oc2c1 [Example 35]
6,0.39,COc1cc(OCc2csc(C(C)(O)C(F)(F)F)n2)c2cc(-c3cn4nc(OC)sc4n3)oc2c1 (stereo not drawn) [Example 143]
7,0.32,"COc1cc(OCc2csc(-c3ccno3)n2)c2cc(-c3cn4nc(OC)sc4n3)oc2c1 [Example 116, 5-(4-(((6-Methoxy-2-(2-methoxyimidazo[2,1-b][1,3,4]thiadiazol-6-yl)benzofuran-4-yl)oxy)methyl)thiazol-2-yl)isoxazole]"
8,0.89,COc1cc(OCc2nc(-c3ccc(C(N)=O)cc3)sc2C)c2cc(-c3cn4nc(OC)sc4n3)oc2c1 [Example 70]
9,0.83,"COc1cc(OCc2nc(C3CCOCC3)sc2C)c2cc(-c3cn4nc(OC)sc4n3)oc2c1 [Example 95, 2-Methoxy-6-(6-methoxy-4-((5-methyl-2-(tetrahydro-2H-pyran-4-yl)thiazol-4-yl)methoxy)benzofuran-2-yl)imidazo[2,1-b][1,3,4]thiadiazole]"
10,0.36,COc1cc(OCc2csc(N3CCS(=O)(=O)CC3)n2)c2cc(-c3cn4nc(OC)sc4n3)oc2c1 [Example 54]
11,0.51,"COc1cc(OCc2nc(C3(O)CCOCC3)sc2C)c2cc(-c3cn4nc([C@H](C)F)sc4n3)oc2c1 [Example 200, (S)-4-(4-(((2-(2-(1-Fluoroethyl)imidazo[2,1-b][1,3,4]thiadiazol-6-yl)-6-methoxybenzofuran-4-yl)oxy)methyl)-5-methylthiazol-2-yl)tetrahydro-2H-pyran-4-ol]"
12,2.9,"COc1cc(OCc2nc(N3CCOCC3)sc2C=O)c2cc(-c3cn4nc(OC)sc4n3)oc2c1 [Example 88, 4-(((6-Methoxy-2-(2-methoxyimidazo[2,1-b][1,3,4]thiadiazol-6-yl)benzofuran-4-yl)oxy)methyl)-2-morpholinothiazole-5-carbaldehyde]"
13,1.3,"COc1cc(OCc2csc(C3(c4ccc(C)cc4)CCOC3)n2)c2cc(-c3cn4nc(OC)sc4n3)oc2c1 (stereo not drawn) [Example 164, 2-Methoxy-6-(6-methoxy-4-((2-(3-(p-tolyl)tetrahydrofuran-3-yl)thiazol-4-yl)methoxy)benzofuran-2-yl)imidazo[2,1-b][1,3,4]thiadiazole]"

# Same assay, conditions: H-Ala-Phe(4-F)-[…]NH2-induced calcium mobilization
row,SMILES,EC50 [nM]
1,"COc1cc(OCc2csc(C3=CCC4(CC3)OCCO4)n2)c2cc(-c3cn4nc(OC)sc4n3)oc2c1 [Example 127, 6-(4-((2-(1,4-Dioxaspiro-[4.5]dec-7-en-8-yl)thiazol-4-yl)methoxy)-6-methoxybenzofuran-2-yl)-2-methoxyimidazo[2,1-b][1,3,4]thiadiazole]",1.6
